Structures can show the parent of a compound that is named as a salt.
Experiments:
[1] = system: JAK2 kinase activity on STAT5; assay: pSTAT5 cell assay (MSD, TF1 cells, IL-3 stimulated); assay type: cell-based; conditions: Homo sapiens, TF-1, compounds 1 hour, 30 ng/mL IL-3 for 15 minutes
Protocol: Compounds of the disclosure were assessed for their ability to inhibit the JAK2 kinase activity on STAT5 utilizing an MSD-platform plate-based assay format. TF1 cells natively expressing STAT5 and JAK2 were serum-starved to reduce background phosphorylation levels, then cells were treated with compounds of disclosure for 1 hour with a 10-point four-fold dilution series starting at 10 μM. Cells were then stimulated with 30 ng/mL IL-3 for 15 minutes. Cells were then lysed and pSTAT5 levels were quantitated using an MSD plate-based assay with anti-STAT5 antibodies. The data were normalized and the percent activity versus log concentration of compound was fitted with a 4-parameter logistic model to generate a curve and an IC50 value.

JH2 domain of human Tyk2 = molecular target: T1, JH2 domain of human Tyk2 (Homo sapiens, UniProt P29597); assay: JH2 biochemical assay (TR-FRET probe displacement); assay type: binding
T1 construct: 10×His-tagged TYK2 JH2 domain (amino acid 575-876)
T1 sequence (P29597 575-876): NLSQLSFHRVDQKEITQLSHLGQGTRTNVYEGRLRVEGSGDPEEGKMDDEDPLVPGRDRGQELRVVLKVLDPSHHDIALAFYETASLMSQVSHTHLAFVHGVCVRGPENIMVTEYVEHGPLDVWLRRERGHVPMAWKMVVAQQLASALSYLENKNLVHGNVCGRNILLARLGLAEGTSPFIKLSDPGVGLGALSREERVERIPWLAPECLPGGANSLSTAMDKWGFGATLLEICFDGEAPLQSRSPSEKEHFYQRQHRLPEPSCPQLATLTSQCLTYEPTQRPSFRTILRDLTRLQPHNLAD
Summary of the method: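 10×His-tagged human TYK2 JH2 (aa 575-876, 2 nM) incubated 60 min with 2 nM fluorescent probe, 0.1 nM Tb anti-His antibody and compound (10-point 3-fold series from […] top). TR-FRET 520/495 nm ratio, falling with probe displacement, normalized and fitted to a 4-parameter logistic for IC50.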

[2] = system: JAK1 kinase activity on STAT3; assay: pSTAT3 cell assay (MSD, TF1 cells, IL-6 stimulated); assay type: cell-based; conditions: Homo sapiens, TF-1, compounds 1 hour, 30 ng/mL IL-6 for 15 minutes
Protocol: The inhibitory potency of compounds of the disclosure against the JAK1 kinase activity on STAT3 was evaluated using an MSD-platform plate-based assay format. TF1 cells natively expressing STAT3 and JAK1 were serum-starved to reduce background phosphorylation levels, then cells were treated with compounds of the disclosure for 1 hour with a 10-point four-fold dilution series starting at 10 μM. Cells were then stimulated with 30 ng/mL interleukin 6 (IL-6) for 15 minutes. Cells were lysed and pSTAT3 levels were quantitated using an MSD plate-based assay with anti-STAT3 antibodies. The data were normalized and the percent activity versus log concentration of compound was fitted with a 4-parameter logistic model to generate IC50 curves.

[3] = system: Tyk2 kinase activity on STAT4; assay: pSTAT4 cell assay (MSD, NK92 cells); assay type: cell-based; conditions: compounds 1 hr
Summary of the method: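 NK92, serum-starved; cpd 1 hr, 10-pt 4-fold from 10 μM; IL2 30 ng/mL 15 min; lyse; MSD with anti-STAT4 Abs; IC50 by 4-PL fit.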

[4] = TR-FRET probe displacement, JH2 domain of human Tyk2

| Structure (SMILES) | IC50 [1] [nM] | IC50 (JH2 domain of human Tyk2; JH2 biochemical assay) [nM] | IC50 [2] [nM] | IC50 ([3]; stimulated 15 minutes) [nM] | IC50 (JH2 domain of human Tyk2; [4]) [nM] | IC50 ([3]; then stimulated 15 minutes) [nM] |
| --- | --- | --- | --- | --- | --- | --- |
| CCc1cc(N2CC3(CC3)c3cnc(NC(C)=O)cc32)nc(C23COC(C2)C3)n1 [Example 322, N-(1′-(2-(2-oxabicyclo[2.1.1]hexan-4-yl)-6-ethylpyrimidin-4-yl)-1′,2′-dihydrospiro[cyclopropane-1,3′-pyrrolo[3,2-c]pyridin]-6′-yl)acetamide] | ≥ 1000 | ≤ 10 | ≥ 1000 | 10 to 100 | – | – |
| CNc1cc(N2CC3(CC3)c3cnc(NC(C)=O)cc32)nc(C(C)(F)F)n1 [Example 10, N-(1′-(2-(1,1-difluoroethyl)-6-(methylamino)pyrimidin-4-yl)-1′,2′-dihydrospiro[cyclopropane-1,3′-pyrrolo[3,2-c]pyridin]-6′-yl)acetamide] | ≥ 1000 | ≤ 10 | ≥ 1000 | 10 to 100 | – | – |
| CC(=O)Nc1cc2c(cn1)C1(CCN(C)CC1)CN2c1ccnc(C(C)(F)F)n1 [Example 275, N-(1′-(2-(1,1-difluoroethyl)pyrimidin-4-yl)-1-methyl-1′,2′-dihydrospiro[piperidine-4,3′-pyrrolo[3,2-c]pyridin]-6′-yl)acetamide trifluoroacetate] | ≥ 1000 | ≥ 1000 | ≥ 1000 | ≥ 1000 | – | – |
| COc1cc(N2CC3(CC3)c3cnc(NC(C)=O)cc32)nc(C(C)(F)F)n1 [Example 1, N-(1′-(2-(1,1-difluoroethyl)-6-methoxypyrimidin-4-yl)-1′,2′-dihydrospiro[cyclopropane-1,3′-pyrrolo[3,2-c]pyridin]-6′-yl)acetamide] | ≥ 1000 | ≤ 10 | ≥ 1000 | 100 to 1000 | – | – |
| CC(=O)Nc1cc2c(cn1)C(C)(C)CN2c1cccc(C(C)(F)F)n1 [Example 76, N-(1-(6-(1,1-difluoroethyl)pyridin-2-yl)-3,3-dimethyl-2,3-dihydro-1H-pyrrolo[3,2-c]pyridin-6-yl)acetamide trifluoroacetate] | ≥ 1000 | 100 to 1000 | ≥ 1000 | ≥ 1000 | – | – |
| COc1cc(C(C)(F)F)nc(N2CC3(CC3)c3cnc(NC(C)=O)cc32)n1 [Example 2, N-(1′-(4-(1,1-difluoroethyl)-6-methoxypyrimidin-2-yl)-1′,2′-dihydrospiro[cyclopropane-1,3′-pyrrolo[3,2-c]pyridin]-6′-yl)acetamide] | ≥ 1000 | ≤ 10 | ≥ 1000 | 100 to 1000 | – | – |
| CC(=O)Nc1cc2c(cn1)C1(CC1)CN2c1ccnc(C(C)(C)F)n1 [Example 17, N-(1′-(2-(2-fluoropropan-2-yl)pyrimidin-4-yl)-1′,2′-dihydrospiro[cyclopropane-1,3′-pyrrolo[3,2-c]pyridin]-6′-yl)acetamide] | ≥ 1000 | ≤ 10 | ≥ 1000 | 100 to 1000 | – | – |
| CC(=O)Nc1cc2c(cn1)C1(CC1)CN2c1cc(C2CC2)nc(C(C)(F)F)n1 [Example 21, N-(1′-(6-cyclopropyl-2-(1,1-difluoroethyl)pyrimidin-4-yl)-1′,2′-dihydrospiro[cyclopropane-1,3′-pyrrolo[3,2-c]pyridin]-6′-yl)acetamide] | ≥ 1000 | ≤ 10 | ≥ 1000 | 10 to 100 | – | – |
| CC(=O)Nc1cc2c(cn1)C1(CCC1)CN2c1cccc(C(C)(F)F)n1 [Example 42, N-(1′-(6-(1,1-difluoroethyl)pyridin-2-yl)-1′,2′-dihydrospiro[cyclobutane-1,3′-pyrrolo[3,2-c]pyridin]-6′-yl)acetamide] | ≥ 1000 | 10 to 100 | ≥ 1000 | ≥ 1000 | – | – |
| CC(=O)Nc1cc2c(cn1)C1(CC1)CN2c1cccc(C2(O)CCOC2)n1 (stereo not drawn) [Example 19, N-(1′-(6-(3-hydroxytetrahydrofuran-3-yl)pyridin-2-yl)-1′,2′-dihydrospiro[cyclopropane-1,3′-pyrrolo[3,2-c]pyridin]-6′-yl)acetamide] | ≥ 1000 | ≤ 10 | ≥ 1000 | 10 to 100 | – | – |
| CC(=O)Nc1cc2c(cn1)C1(CC1)CN2c1ccnc(C(C)(F)F)n1 [Example 13, N-(1′-(2-(1,1-difluoroethyl)pyrimidin-4-yl)-1′,2′-dihydrospiro[cyclopropane-1,3′-pyrrolo[3,2-c]pyridin]-6′-yl)acetamide] | ≥ 1000 | 10 to 100 | ≥ 1000 | 100 to 1000 | – | – |
| CC(=O)Nc1cc2c(cn1)CCN2c1cccc(C(C)(F)F)n1 [Example 32, N-(1-(6-(1,1-difluoroethyl)pyridin-2-yl)-2,3-dihydro-1H-pyrrolo[3,2-c]pyridin-6-yl)acetamide] | ≥ 1000 | 10 to 100 | ≥ 1000 | ≥ 1000 | – | – |
| CC(=O)Nc1cc2c(cn1)C1(CC1)CN2c1nccc(C(C)(F)F)n1 [Example 14, N-(1′-(4-(1,1-difluoroethyl)pyrimidin-2-yl)-1′,2′-dihydrospiro[cyclopropane-1,3′-pyrrolo[3,2-c]pyridin]-6′-yl)acetamide] | ≥ 1000 | 10 to 100 | ≥ 1000 | 100 to 1000 | – | – |
| CC(=O)Nc1cc2c(cn1)C1(CC1)CN2c1cc(-c2cnn(C(C)C)c2)nc(C(C)(F)F)n1 [Example 386, N-(1′-(2-(1,1-difluoroethyl)-6-(1-isopropyl-1H-pyrazol-4-yl)pyrimidin-4-yl)-1′,2′-dihydrospiro[cyclopropane-1,3′-pyrrolo[3,2-c]pyridin]-6′-yl)acetamide trifluoroacetate] | ≥ 1000 | – | ≥ 1000 | – | ≤ 10 | ≤ 10 |
| CC(=O)Nc1cc2c(cn1)C1(CC1)CN2c1cc(-c2cnn(C)c2)nc(C(C)(F)F)n1 [Example 238, N-(1′-(2-(1,1-difluoroethyl)-6-(1-methyl-1H-pyrazol-4-yl)pyrimidin-4-yl)-1′,2′-dihydrospiro[cyclopropane-1,3′-pyrrolo[3,2-c]pyridin]-6′-yl)acetamide] | ≥ 1000 | ≤ 10 | ≥ 1000 | ≤ 10 | – | – |
| CNC(=O)Nc1cc2c(cn1)C1(CC1)CN2c1cc(C)nc(C(C)(F)F)n1 [Example 307, 1-(1′-(2-(1,1-difluoroethyl)-6-methylpyrimidin-4-yl)-1′,2′-dihydrospiro[cyclopropane-1,3′-pyrrolo[3,2-c]pyridin]-6′-yl)-3-methylurea] | ≥ 1000 | ≤ 10 | ≥ 1000 | 10 to 100 | – | – |
| CCn1cc(-c2cc(N3CC4(CC4)c4cnc(NC(C)=O)cc43)nc(C(C)(F)F)n2)cn1 [Example 384, N-(1′-(2-(1,1-difluoroethyl)-6-(1-ethyl-1H-pyrazol-4-yl)pyrimidin-4-yl)-1′,2′-dihydrospiro[cyclopropane-1,3′-pyrrolo[3,2-c]pyridin]-6′-yl)acetamide trifluoroacetate] | ≥ 1000 | – | ≥ 1000 | – | ≤ 10 | 10 to 100 |
| CC(=O)Nc1cc2c(cn1)C1(CC1C)CN2c1ccnc(C(C)(F)F)n1 (stereo not drawn) [Example 37, N-(1′-(2-(1,1-difluoroethyl)pyrimidin-4-yl)-2-methyl-1′,2′-dihydrospiro[cyclopropane-1,3′-pyrrolo[3,2-c]pyridin]-6′-yl)acetamide] | ≥ 1000 | 10 to 100 | ≥ 1000 | ≥ 1000 | – | – |

Source: patent US20260258032A1, “TYROSINE KINASE 2 INHIBITORS AND USES THEREOF” (BIOGEN MA INC., priority 2022, published 2026)
